Experimental data as given in PubChem BioAssay AID2050 (NMMLSC, 2009).
Calls of active or inactive are those of the source.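 The calls were made as follows: active = EC50 at or below 30 µM together with a response span of at least a set limit; inactive = the rest.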

biological target: GTPase HRas (Homo sapiens) (UniProt P01112); test: inhibition of fluorescent GTP binding to activated Ras – biochemical, pyrazoline analogs, multiplex bead flow cytometry, SAR follow-up (AID 2050); settings: GST-Ras beads, Bodipy-FL-GTP binding
Sequence (P01112 whole entry, looked up): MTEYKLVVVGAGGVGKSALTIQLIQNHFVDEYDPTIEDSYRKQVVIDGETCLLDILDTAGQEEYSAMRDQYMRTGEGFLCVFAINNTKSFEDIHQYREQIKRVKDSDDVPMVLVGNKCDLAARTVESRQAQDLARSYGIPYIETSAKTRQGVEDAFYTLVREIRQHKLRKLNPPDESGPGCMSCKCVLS

EC50	Structure (SMILES)
> 30 µM (inactive)	COc1ccc(C2CC(c3cccc(Cl)c3)=NN2c2ccc(S(N)(=O)=O)cc2)cc1 (stereo not drawn)
> 30 µM (inactive)	COc1ccc(C2CC(C)=NN2c2ccc(S(N)(=O)=O)cc2)cc1 (stereo not drawn)
> 30 µM (inactive)	COc1ccc(C2CC(c3ccccc3)=NN2c2cccc(S(N)(=O)=O)c2)cc1 (stereo not drawn)
> 30 µM (inactive)	COc1ccc(C2CC(c3ccc(C(F)(F)F)cc3)=NN2c2ccc(S(N)(=O)=O)cc2)cc1 (stereo not drawn)
> 30 µM (inactive)	COc1ccc(C2CC(C3CCCCC3)=NN2c2ccc(S(N)(=O)=O)cc2)cc1 (stereo not drawn)
> 30 µM (inactive)	COc1ccc(C2=NN(c3ccc(S(N)(=O)=O)cc3)C(c3ccc(OC)cc3)C2)cc1 (stereo not drawn)
> 30 µM (inactive)	COc1ccc(C2CC(c3ccc(C)cc3)=NN2c2ccc(S(N)(=O)=O)cc2)cc1 (stereo not drawn)
> 30 µM (inactive)	COc1ccc(C2CC(c3ccsc3)=NN2c2ccc(S(N)(=O)=O)cc2)cc1 (stereo not drawn)
> 30 µM (inactive)	NS(=O)(=O)c1ccc(N2N=C(c3ccccc3)CC2c2ccc(Cl)cc2)cc1 (stereo not drawn)
> 30 µM (inactive)	COc1ccc(C2CC(c3cccs3)=NN2c2ccc(S(N)(=O)=O)cc2)cc1 (stereo not drawn)
> 30 µM (inactive)	Cc1ccc(C2CC(c3ccccc3)=NN2c2ccc(S(N)(=O)=O)cc2)cc1 (stereo not drawn)
> 30 µM (inactive)	COc1ccc(C2CC(c3ccccc3C)=NN2c2ccc(S(N)(=O)=O)cc2)cc1 (stereo not drawn)

Continued, molecule first:

Structure (SMILES)	EC50
COc1ccc(C2CC(c3ccccc3)=NN2c2ccc(C(N)=O)cc2)cc1 (stereo not drawn)	> 30 µM (inactive)
O=C(O)c1ccc(N2N=C(c3ccccc3)CC2c2ccccc2)cc1 (stereo not drawn)	> 30 µM (inactive)
COc1ccc(C2=NN(c3cccc(F)c3)C(c3ccc(Cl)cc3)C2)cc1 (stereo not drawn)	> 30 µM (inactive)
Clc1ccc(N2N=C(c3ccccc3)CC2c2ccccc2)cc1 (stereo not drawn)	> 30 µM (inactive)
COc1ccc(C2CC(c3ccccc3)=NN2c2ccc(Cl)c(C(=O)O)c2)cc1 (stereo not drawn)	> 30 µM (inactive)
COc1ccc(C2=NN(c3cccc(F)c3)C(c3ccc(OC)cc3)C2)cc1 (stereo not drawn)	> 30 µM (inactive)
CC(=O)Oc1ccc(C2=NN(c3ccccc3)C(c3ccccc3)C2)cc1 (stereo not drawn)	> 30 µM (inactive)
O=S(=O)(O)c1ccc(N2N=C(c3ccccc3)CC2c2ccccc2)cc1 (stereo not drawn)	> 30 µM (inactive)
Cc1cccc(N2N=C(c3ccccc3)CC2c2ccccc2)c1 (stereo not drawn)	> 30 µM (inactive)
NS(=O)(=O)c1ccc(N2N=C(c3ccccc3)CC2c2cccc(Cl)c2)cc1 (stereo not drawn)	> 30 µM (inactive)
NS(=O)(=O)c1ccc(N2N=C(c3ccccc3)CC2c2ccccc2Cl)cc1 (stereo not drawn)	> 30 µM (inactive)
Cc1ccccc1N1N=C(c2ccccc2)CC1c1ccc(N(C)C)cc1 (stereo not drawn)	> 30 µM (inactive)
CN(C)c1ccc(C2CC(c3ccc(F)cc3)=NN2c2ccccc2)cc1 (stereo not drawn)	> 30 µM (inactive)
O=S(=O)(c1ccc(N2N=C(c3ccc(Br)cc3)CC2c2ccccc2)cc1)C(F)F (stereo not drawn)	inactive
NS(=O)(=O)c1ccc(N2N=C(c3ccccc3)CC2c2cccc(Br)c2)cc1 (stereo not drawn)	> 30 µM (inactive)
COc1ccccc1C1CC(c2ccccc2)=NN1c1ccccc1 (stereo not drawn)	> 30 µM (inactive)
O=S(=O)(c1ccc(N2N=C(c3ccccc3)CC2c2ccccc2)cc1)C(F)F (stereo not drawn)	> 30 µM (inactive)
CN(C)c1ccc(C2CC(c3ccc(Br)cc3)=NN2c2ccccc2)cc1 (stereo not drawn)	> 30 µM (inactive)
COc1ccc(C2CC(c3ccc(Cl)cc3)=NN2c2ccccc2)cc1OC (stereo not drawn)	> 30 µM (inactive)
NS(=O)(=O)c1ccc(N2N=C(c3ccc(Cl)cc3)CC2c2ccccc2)cc1 (stereo not drawn)	inactive
COc1ccc(C2=NN(c3ccccc3F)C(c3ccc(F)cc3)C2)cc1 (stereo not drawn)	> 30 µM (inactive)
Clc1cccc(N2N=C(c3ccccc3)CC2c2ccccc2)c1 (stereo not drawn)	> 30 µM (inactive)
O=[N+]([O-])c1ccc(N2N=C(c3ccccc3)CC2c2ccc(O)cc2)cc1 (stereo not drawn)	> 30 µM (inactive)
COc1ccc(C2CC(c3ccccc3)=NN2c2ccc(S(N)(=O)=O)cc2)cc1OC (stereo not drawn)	> 30 µM (inactive)

same assay, conditions: GST-Ras beads, Bodipy-FL-GTP binding, measured here: Ki calculated from EC50

Ki [µM]	Structure (SMILES)
0.18	O=S(=O)(c1ccc(N2N=C(c3ccc(Br)cc3)CC2c2ccccc2)cc1)C(F)F (stereo not drawn)
0.01	NS(=O)(=O)c1ccc(N2N=C(c3ccc(Cl)cc3)CC2c2ccccc2)cc1 (stereo not drawn)
